# Results reported in patent publication US8658226B2, “Agent having anti-Helicobacter pylori activity” (Japan Royal Jelly Co., Ltd., priority 2008, dated 2014).
# Tested on: Helicobacter pylori
# Experiment: Measurement of anti-Helicobacter pylori activity by the paper disk method
# Assay type: cell-based
# Protocol: Measurement of anti-Helicobacter pylori activity was carried out by the paper disk method using Helicobacter pylori agar culture medium (Pore […] Chemical). After coating Helicobacter pylori over the entire surface of this medium, a thick circular piece of filter paper (Advantec) having a diameter of 8 mm impermeated with 60 μl of extract was placed on the medium followed by culturing in the presence of 10% carbon dioxide gas. After culturing for 3 to 4 days, the size of the zone of inhibition of Helicobacter pylori growth formed around the filter paper was observed. A piece of filter paper impermeated with chloramphenicol (CM, 100 μg/ml) was also placed on the medium as a positive control, while a piece of filter paper impermeated with PBS was placed on the medium as a negative control.
structure (smiles),measurement,setting,value
O=C(N[C@H](CO)[C@H](O)c1ccc([N+](=O)[O-])cc1)C(Cl)Cl [chloramphenicol],MIC,"Helicobacter pylori, assumed from paper disk method, read-out: minimum inhibitory concentration (MIC)",~5 µg/mL
same,antibacterial activity of chloramphenicol,at a concentration of 5 μg/ml,essentially no longer observed
